According to publication PMC6333900, “Discovery of peptide ligands targeting a specific ubiquitin-like domain–binding site in the deubiquitinase USP11” (The Journal of Biological Chemistry, 2018):
*: point of attachment. 5TAMRA = CN(C)c1ccc2c(c1)Oc1cc(N(C)C)ccc1C21OC(=O)c2cc(C(=O)*)ccc21

Key:
[1] = system: KNS-42, U87, HeLa, MCF7, Panc1, NIH3T3 and BJ6 cell lines; assay: Cellular delivery by GET system; type: cell-based; conditions: TAMRA-tagged peptide
Text: We next evaluated the effect of the FYLIR peptide ligand on cells in culture. The novel GET system, developed for highly efficient nucleic acid, protein and peptide delivery ([35]), was used to deliver the FYLIR peptide. GET is based on the use of cell-penetrating peptides modified with heparin-binding sequences, which enhance cellular uptake by endocytosis. The synthetic peptide, GET-FYLIR, designed for these studies harbored an N-terminal TAMRA fluorescent tag, for easy visualization, fused to the GET (P21 and 8 Arg ([35])) and FYLIR sequences. […] Having established efficient delivery, the peptide's effect was investigated by assessing cell viability.

HeLa cells = assay: Confocal microscopy, intracellular localization; type: cell-based, human; conditions: 10 μM, 24 h, confocal imaging
Method: HeLa cells were plated onto 10-mm diameter glass coverslips (1 × 10^5 cells/coverslip). Cells treated with GET-FYLIR were fixed for 10 min in 3.7% (w/v) paraformaldehyde (Sigma), stained with 1 μg/ml Hoechst 33342 (Molecular Probes) for a further 10 min, washed, and mounted. Cells were imaged using an LSM880C confocal microscope (Zeiss, Germany). A ×63 objective lens was used with a […] laser used for Hoechst 33342 and a 561-nm DPSS laser for GET-FYLIR–transduced cells. Images were captured and processed using ZEN software (Zeiss, Germany).

Panc1 cells [2] = assay: Cell viability (Presto Blue assay), Panc1; type: cell-based, human
Method: (§1) Cells were plated in 96-well plates (2.5 × 10^4 cells/well) and treated with GET-FYLIR (0–50 μM) for 24 h. Cells were also treated with GET-Scrambled as a control. After treatment, cells were washed with PBS and then incubated for 15 min at 37 °C with a 100-μl Presto Blue solution (10% Presto Blue, Invitrogen in Hanks' balanced salt solution, Sigma). Change in the fluorescence was measured using a plate reader with the excitation/emission wavelengths set at 560/590 nm (Infinite® 200 PRO, TECAN), with untreated cells used as a control. All data sets were combined for the statistical analysis. A Sidak's multiple comparisons test was applied. N refers to the number of biological replicates.

[3] = system: BJ6 human dermal fibroblasts; assay: Cell viability (Presto Blue assay), BJ6; type: cell-based; conditions: 24 h; for cell viability: n = 3
Method: as §1

U87 cells = assay: Cell viability (Presto Blue assay), U87; type: cell-based, human; conditions: 24 h, n = 3
Method: as §1

NIH3T3 cells [4] = assay: Cell viability (Presto Blue assay), NIH3T3; type: cell-based; conditions: for cell viability: 24 h, Presto Blue, n = 3
Method: as §1

Panc1 cells [5] = assay: Cell uptake (flow cytometry), Panc1; type: cell-based, human; conditions: 1 h and 24 h, compared with NIH3T3, flow cytometry
Method: (§2) Cells treated with GET-FYLIR or GET-Scrambled were analyzed on an Astrios cell sorter using a 488-nm […] laser (40,000 cells; gated on live cells by forward/side scatter). Gmean was used as the average cell intensity. All data sets were combined for the statistical analysis. A Sidak's multiple comparisons test was applied. N refers to the number of biological replicates.

NIH3T3 cells [6] = assay: Cell uptake (flow cytometry), NIH3T3; type: cell-based; conditions: compared with Panc1, flow cytometry
Method: as §2

Panc1 cells [7] = assay: Cell cycle analysis (propidium iodide, flow cytometry), Panc1; type: cell-based, human; conditions: Panc1, 20 μM, 24 h, p < 0.0001, n = 7
Method: (§3) Cells were plated in 24-well plates (1 × 10^5 cells/well) and treated with GET-FYLIR (20 μM) for 24 h. The cells were treated with trypsin, detached from the plate, and centrifuged at 200 × g for 5 min. The supernatant was aspirated, and the cells were resuspended in PBS. The cells were fixed in 70% ethanol for 1 h at 4 °C. The cells were washed with PBS and incubated in propidium iodide staining solution (0.1% (v/v) Triton X-100, 10 μg/ml propidium iodide (Sigma), and 100 μg/ml DNase-free RNase A in PBS) for 30 min at room temperature. Cells were analyzed using an FC500 flow cytometer (Beckman Coulter) equipped with a 488-nm laser, and data from at least 10,000 cells were acquired for each sample. Cells were gated based on forward and side scatter, and doublets excluded by height/area analysis. Cell cycle percentages were calculated by curved fit using Weasel Version 3.0 (Walter and Eliza Hall Institute of Medical Research). Data shown are representative. All data sets were combined for the statistical analysis. A Sidak's multiple comparisons test was applied. N refers to the number of biological replicates. All curves and statistical analyses were produced using Prism 7 (GraphPad Software).

NIH3T3 cells [8] = assay: Cell cycle analysis (propidium iodide, flow cytometry), NIH3T3; type: cell-based; conditions: NIH3T3, 20 μM, 24 h, n = 5
Method: as §3

Panc1 cells [9] = conditions: cited from earlier work
Text: (§4) Several reports link USP11 to cell cycle progression and proliferation, although the detailed mechanisms are only partially understood. For example, (i) cell growth assays in MCF-7 and MDA-MB-231 cells show an increase in cell numbers upon USP11 overexpression, whereas USP11 knockdown leads to growth inhibition ([48]); (ii) USP11 itself is under cell cycle control and turns over rapidly in G1 cells, especially upon DNA damage induction, whereas expression of USP11 in S phase is high and insensitive to DNA damage ([12]). Knockdown of USP11 results in the activation of DNA damage-response pathwa ...

USP11 = conditions: cited from earlier work
Text: as §4

With “5TAMRA-KRKKKGKGLGKKRDPCLRKYKRRRRRRRRAEGEFYKLKIRTPR-NH2 [GET-FYLIR]” the cellular delivery [1] was “efficiently delivered to all cell lines tested”, the endosomal escape (HeLa cells) was “efficiently escapes endosomal vesicles” and the subcellular localization (HeLa cells) was “both the cell cytoplasm and the nucleus, with the highest accumulation in nucleoli”. For the same compound, the cell viability effects (Panc1 cells [2]; Panc1, 5 μM, uptake experiment, 1 and 24 h) was “cell viability effects in Panc1 but not NIH3T3 cells were observed”, the loss of viability (Panc1 cells [2]; Panc1, 10 μM, 24 h, Presto Blue, n = 3 biological repeats) was roughly 50% and the “sensitivity to dose (viability)” value (Panc1 cells [2]; Panc1, up to 50 μM, 24 h, Presto Blue) was “particularly sensitive”. The cell viability ([3]; BJ6, 10 μM) was “retained”, the cell viability ([3]; BJ6, 20 μM) was “minimal effect” and the “sensitivity to dose (viability)” value ([3]; BJ6, up to 50 μM) was “relatively insensitive”. For the same compound, the cell viability (U87 cells; U87, 10 μM) was “retained”, the cell viability (U87 cells; U87, 20 μM) was “minimal effect” and the cell viability effects (NIH3T3 cells [4]; NIH3T3, 5 μM, uptake experiment, 1 and 24 h) was “cell viability effects in Panc1 but not NIH3T3 cells were observed”. For the same compound, the cell viability (NIH3T3 cells [4]; NIH3T3, 10 μM) was “retained”, the cell viability (NIH3T3 cells [4]; NIH3T3, 20 μM) was “minimal effect” and the cell uptake (Panc1 cells [5]; Panc1, 1 μM) was “little difference in cell uptake in either cell type”. The cell uptake (Panc1 cells [5]; Panc1, 5 μM) was “increased uptake in Panc1 cells for both 1- and 24-h incubations”, the cell uptake (NIH3T3 cells [6]; NIH3T3, 1 μM, 1 h and 24 h) was “little difference in cell uptake in either cell type” and the cell uptake (NIH3T3 cells [6]; NIH3T3, 5 μM, both incubation times) was “significantly lower than Panc1 cells”. The “subG0 fraction” value (Panc1 cells [7]; from 0.9% untreated) was 8%, the “fraction of cells in S phase” value (Panc1 cells [7]; from 36.9% untreated) was 52.8% and the “fold increase of subG0 fraction” value (Panc1 cells [7]; versus untreated) was roughly 9 fold. For the same compound, the “subG0 fraction” value (NIH3T3 cells [8]; from 0.2% untreated, not significant, p = 0.9992) was 0.8% and the “fraction of cells in S phase” value (NIH3T3 cells [8]; from 24.8% untreated, p < 0.0001) was 37.5%.

For `O=C1c2c(O)ccc(O)c2C(=O)c2c(NCCNCCO)ccc(NCCNCCO)c21` [mitoxantrone], the cell death (Panc1 cells [9]) is given as “dose-dependent cell death” and the USP11 inhibition (USP11) is given as “inhibits USP11”.
